# Measurements reported in PubChem BioAssay (NCI).
#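 Step 1: Grow cells in 96-well plates. Step 2: Expose to compound for 48 hours at 5 concentrations. Step 3: Interpolate endpoints linearly; if unreached, use highest concentration. TGI denotes the concentration required for complete inhibition of growth.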
# How the values were obtained:
# Experiment in all cases: inhibition of tumour cell growth, NCI panel, 48 h
# MALME-3M melanoma = system: MALME-3M melanoma
# SF-268 CNS = system: SF-268 CNS
# HCC-2998 colon = system: HCC-2998 colon
# SK-MEL-5 melanoma = system: SK-MEL-5 melanoma
# K-562 leukemia = system: K-562 leukemia
# M14 melanoma = system: M14 melanoma
# OVCAR-5 ovarian = system: OVCAR-5 ovarian
# SN12C renal = system: SN12C renal
# SK-MEL-2 melanoma = system: SK-MEL-2 melanoma
# 786-0 renal = system: 786-0 renal
# TK-10 renal = system: TK-10 renal
# HT29 colon = system: HT29 colon
# UACC-257 melanoma = system: UACC-257 melanoma
# U251 CNS = system: U251 CNS
# XF 498 CNS = system: XF 498 CNS
# LXFL 529 NSCLC = system: LXFL 529 NSCLC
# DMS 114 small cell lung = system: DMS 114 small cell lung
# DMS 273 small cell lung = system: DMS 273 small cell lung
# CAKI-1 renal = system: CAKI-1 renal
# SK-OV-3 ovarian = system: SK-OV-3 ovarian
# HOP-92 NSCLC = system: HOP-92 NSCLC
# NCI-H522 lung = system: NCI-H522 lung
# DLD-1 colon = system: DLD-1 colon
# SF-539 CNS = system: SF-539 CNS
# HOP-18 NSCLC = system: HOP-18 NSCLC
# SNB-75 CNS = system: SNB-75 CNS
# ACHN renal = system: ACHN renal
# RPMI-8226 leukemia = system: RPMI-8226 leukemia
# OVCAR-4 ovarian = system: OVCAR-4 ovarian
# MOLT-4 leukemia = system: MOLT-4 leukemia
# IGROV1 ovarian = system: IGROV1 ovarian
# SF-295 CNS = system: SF-295 CNS
# HOP-62 NSCLC = system: HOP-62 NSCLC
# EKVX NSCLC = system: EKVX NSCLC
# CCRF-CEM leukemia = system: CCRF-CEM leukemia
# NCI-H23 lung = system: NCI-H23 lung
# NCI-H460 lung = system: NCI-H460 lung
# SR leukemia = system: SR leukemia
# LOX IMVI melanoma = system: LOX IMVI melanoma
# UO-31 renal = system: UO-31 renal
# M19-MEL melanoma = system: M19-MEL melanoma
# SNB-19 CNS = system: SNB-19 CNS
# COLO 205 colon = system: COLO 205 colon
# A549 NSCLC = system: A549 NSCLC
# RXF 393 renal = system: RXF 393 renal
# KM12 colon = system: KM12 colon
# UACC-62 melanoma = system: UACC-62 melanoma
# OVCAR-3 ovarian = system: OVCAR-3 ovarian
# HCT-116 colon = system: HCT-116 colon
# A498 renal = system: A498 renal
# SW-620 colon = system: SW-620 colon
# OVCAR-8 ovarian = system: OVCAR-8 ovarian
# NCI-H226 lung = system: NCI-H226 lung
# SK-MEL-28 melanoma = system: SK-MEL-28 melanoma
# HL-60(TB) leukemia = system: HL-60(TB) leukemia
# KM20L2 colon = system: KM20L2 colon
# HCT-15 colon = system: HCT-15 colon
# SNB-78 CNS = system: SNB-78 CNS
compound,measurement,setting,value
[N-]=[N+]=NC1C2CC3C4CC5CC3[C@H](C2)C(C5)C41 (stereo partly drawn),TGI,MALME-3M melanoma,> 100 µM
same,TGI,SF-268 CNS,> 100 µM
same,TGI,HCC-2998 colon,> 100 µM
same,TGI,SK-MEL-5 melanoma,> 100 µM
same,TGI,K-562 leukemia,> 100 µM
same,TGI,M14 melanoma,> 100 µM
same,TGI,OVCAR-5 ovarian,> 100 µM
same,TGI,SN12C renal,> 100 µM
same,TGI,SK-MEL-2 melanoma,> 100 µM
same,TGI,786-0 renal,> 100 µM
same,TGI,TK-10 renal,> 100 µM
same,TGI,HT29 colon,> 100 µM
same,TGI,UACC-257 melanoma,> 100 µM
same,TGI,U251 CNS,> 100 µM
same,TGI,XF 498 CNS,> 100 µM
same,TGI,LXFL 529 NSCLC,> 100 µM
same,TGI,DMS 114 small cell lung,> 100 µM
same,TGI,DMS 273 small cell lung,> 100 µM
same,TGI,CAKI-1 renal,> 100 µM
same,TGI,SK-OV-3 ovarian,> 100 µM
same,TGI,HOP-92 NSCLC,> 100 µM
same,TGI,NCI-H522 lung,> 100 µM
same,TGI,DLD-1 colon,> 100 µM
same,TGI,SF-539 CNS,> 100 µM
same,TGI,HOP-18 NSCLC,> 100 µM
same,TGI,SNB-75 CNS,> 100 µM
same,TGI,ACHN renal,> 100 µM
same,TGI,RPMI-8226 leukemia,> 100 µM
same,TGI,OVCAR-4 ovarian,> 100 µM
same,TGI,MOLT-4 leukemia,> 100 µM
same,TGI,IGROV1 ovarian,> 100 µM
same,TGI,SF-295 CNS,> 100 µM
same,TGI,HOP-62 NSCLC,> 100 µM
same,TGI,EKVX NSCLC,> 100 µM
same,TGI,CCRF-CEM leukemia,> 100 µM
same,TGI,NCI-H23 lung,> 100 µM
same,TGI,NCI-H460 lung,> 100 µM
same,TGI,SR leukemia,> 100 µM
same,TGI,LOX IMVI melanoma,> 100 µM
same,TGI,UO-31 renal,> 100 µM
same,TGI,M19-MEL melanoma,> 100 µM
same,TGI,SNB-19 CNS,> 100 µM
same,TGI,COLO 205 colon,> 100 µM
same,TGI,A549 NSCLC,> 100 µM
same,TGI,RXF 393 renal,> 100 µM
same,TGI,KM12 colon,> 100 µM
same,TGI,UACC-62 melanoma,> 100 µM
same,TGI,OVCAR-3 ovarian,> 100 µM
same,TGI,HCT-116 colon,> 100 µM
same,TGI,A498 renal,> 100 µM
same,TGI,SW-620 colon,> 100 µM
same,TGI,OVCAR-8 ovarian,> 100 µM
same,TGI,NCI-H226 lung,> 100 µM
same,TGI,SK-MEL-28 melanoma,> 100 µM
NC(=O)NN/C=C(/C=Nc1ccccc1)[N+](=O)[O-],TGI,SF-268 CNS,> 100 µM
same,TGI,HCC-2998 colon,> 100 µM
same,TGI,SK-MEL-5 melanoma,> 100 µM
same,TGI,K-562 leukemia,> 100 µM
same,TGI,M14 melanoma,> 100 µM
same,TGI,SN12C renal,> 100 µM
same,TGI,786-0 renal,> 100 µM
same,TGI,TK-10 renal,> 100 µM
same,TGI,HT29 colon,> 100 µM
same,TGI,HL-60(TB) leukemia,> 100 µM
same,TGI,UACC-257 melanoma,> 100 µM
same,TGI,U251 CNS,> 100 µM
same,TGI,XF 498 CNS,> 100 µM
same,TGI,LXFL 529 NSCLC,> 100 µM
same,TGI,DMS 114 small cell lung,> 100 µM
same,TGI,DMS 273 small cell lung,> 100 µM
same,TGI,SK-OV-3 ovarian,> 100 µM
same,TGI,HOP-92 NSCLC,> 100 µM
same,TGI,NCI-H522 lung,> 100 µM
same,TGI,DLD-1 colon,> 100 µM
same,TGI,HOP-18 NSCLC,> 100 µM
same,TGI,ACHN renal,> 100 µM
same,TGI,RPMI-8226 leukemia,> 100 µM
same,TGI,OVCAR-4 ovarian,> 100 µM
same,TGI,MOLT-4 leukemia,> 100 µM
same,TGI,IGROV1 ovarian,> 100 µM
same,TGI,SF-295 CNS,> 100 µM
same,TGI,HOP-62 NSCLC,> 100 µM
same,TGI,EKVX NSCLC,> 100 µM
same,TGI,CCRF-CEM leukemia,> 100 µM
same,TGI,NCI-H23 lung,> 100 µM
same,TGI,NCI-H460 lung,> 100 µM
same,TGI,SR leukemia,> 100 µM
same,TGI,KM20L2 colon,> 100 µM
same,TGI,LOX IMVI melanoma,> 100 µM
same,TGI,UO-31 renal,> 100 µM
same,TGI,M19-MEL melanoma,> 100 µM
same,TGI,SNB-19 CNS,> 100 µM
same,TGI,COLO 205 colon,> 100 µM
same,TGI,A549 NSCLC,> 100 µM
same,TGI,RXF 393 renal,> 100 µM
same,TGI,UACC-62 melanoma,> 100 µM
same,TGI,OVCAR-3 ovarian,> 100 µM
same,TGI,HCT-116 colon,> 100 µM
same,TGI,HCT-15 colon,> 100 µM
same,TGI,SW-620 colon,> 100 µM
same,TGI,OVCAR-8 ovarian,> 100 µM
same,TGI,SK-MEL-28 melanoma,> 100 µM
CCOP1(=O)C=CC(Cl)=C(C)C1 (stereo not drawn),TGI,MALME-3M melanoma,29 µM
same,TGI,SF-268 CNS,56.9 µM
same,TGI,HCC-2998 colon,29.6 µM
same,TGI,SK-MEL-5 melanoma,36.5 µM
same,TGI,K-562 leukemia,20.4 µM
same,TGI,M14 melanoma,29 µM
same,TGI,OVCAR-5 ovarian,50.2 µM
same,TGI,SN12C renal,16.3 µM
same,TGI,SK-MEL-2 melanoma,27.5 µM
same,TGI,786-0 renal,30.6 µM
same,TGI,TK-10 renal,34.2 µM
same,TGI,HT29 colon,28.5 µM
same,TGI,HL-60(TB) leukemia,15.3 µM
same,TGI,UACC-257 melanoma,39.8 µM
same,TGI,U251 CNS,65.3 µM
same,TGI,XF 498 CNS,34.3 µM
same,TGI,LXFL 529 NSCLC,25.9 µM
same,TGI,DMS 114 small cell lung,39.4 µM
same,TGI,CAKI-1 renal,23.7 µM
same,TGI,SK-OV-3 ovarian,> 100 µM
same,TGI,HOP-92 NSCLC,34.3 µM
same,TGI,NCI-H522 lung,17.3 µM
same,TGI,DLD-1 colon,25.4 µM
same,TGI,SF-539 CNS,43.6 µM
same,TGI,HOP-18 NSCLC,31.2 µM
same,TGI,SNB-75 CNS,19.9 µM
same,TGI,ACHN renal,24.8 µM
same,TGI,RPMI-8226 leukemia,> 59.4 µM
same,TGI,OVCAR-4 ovarian,30.7 µM
same,TGI,MOLT-4 leukemia,19.9 µM
same,TGI,IGROV1 ovarian,55.1 µM
same,TGI,SF-295 CNS,> 100 µM
same,TGI,HOP-62 NSCLC,70 µM
same,TGI,EKVX NSCLC,> 56.8 µM
same,TGI,CCRF-CEM leukemia,12 µM
same,TGI,NCI-H23 lung,18.1 µM
same,TGI,NCI-H460 lung,74.3 µM
same,TGI,KM20L2 colon,31.8 µM
same,TGI,LOX IMVI melanoma,39 µM
same,TGI,UO-31 renal,> 71.5 µM
same,TGI,M19-MEL melanoma,> 57.3 µM
same,TGI,SNB-19 CNS,> 100 µM
same,TGI,COLO 205 colon,44.4 µM
same,TGI,A549 NSCLC,> 100 µM
same,TGI,RXF 393 renal,14.3 µM
same,TGI,KM12 colon,33.5 µM
same,TGI,UACC-62 melanoma,32.2 µM
same,TGI,OVCAR-3 ovarian,35 µM
same,TGI,HCT-116 colon,44.7 µM
same,TGI,HCT-15 colon,30.1 µM
same,TGI,A498 renal,> 71.1 µM
same,TGI,SW-620 colon,30.4 µM
same,TGI,OVCAR-8 ovarian,71.6 µM
same,TGI,NCI-H226 lung,> 100 µM
same,TGI,SK-MEL-28 melanoma,30.3 µM
same,TGI,SNB-78 CNS,47.5 µM
